Common to all, as to format: functional
Assay [1] deals with Mycobacterium tuberculosis. Briefly: Antibacterial activity against Mycobacterium tuberculosis TN565 (W).
The subject of assay [2] is Mycobacterium tuberculosis. Nature of the assay: Antibacterial activity against Mycobacterium tuberculosis TN1618 (P).
For assay [3], the system named is Mycobacterium tuberculosis. Nature of the assay: Antibacterial activity against Mycobacterium tuberculosis TN913.
Assay [4] has as its system Mycobacterium tuberculosis. Briefly: Antibacterial activity against Mycobacterium tuberculosis H37Rv.
A further assay deals with Pasteurella multocida. Briefly: Antibacterial activity against Pasteurella multocida wild-type.
The test system of assay [5] is Escherichia coli. Nature of the assay: Antibacterial activity against Escherichia coli wild-type.
A further assay deals with Pseudomonas aeruginosa. Nature of the assay: Antibacterial activity against Pseudomonas aeruginosa wild-type.
The subject of assay [6] is Escherichia coli. Nature of the assay: Antibacterial activity against Escherichia coli resistant to (GEN) gentamicin; (RIF) rifampicin; (SM) streptomycin; (SP) spectinomycin; (SU) sulfonamides; (TET) tetracycline; (Hg)mercury.
The test system of the next assay is Citrobacter koseri. Briefly: Antibacterial activity against Citrobacter diversus.
For the next assay, the system named is Citrobacter freundii. Nature of the assay: Antibacterial activity against Citrobacter freundii resistant to (GEN) gentamicin; (ERY) erythromycin;.
The test system of assay [7] is Klebsiella pneumoniae. Briefly: Antibacterial activity against Klebsiella pneumoniae resistant to (AMP) ampicillin; (GEN) gentamicin; NAL (nalidixic acid); (TET) tetracycline.
Assay [8] deals with Klebsiella pneumoniae. Nature of the assay: Antibacterial activity against Klebsiella pneumoniae.
Assay [9] has as its system Escherichia coli. Nature of the assay: Antibacterial activity against Escherichia coli resistant to (AMP) ampicillin;) KAN) kanamycin; (NM) neomycin; (RIF) rifampicin; (TET) tetracycline; (Hg)mercury.
The test system of another assay is Enterobacter cloacae. Briefly: Antibacterial activity against Enterobacter cloacae resistant to (ERY) erythromycin;.
The test system of another assay is Acinetobacter baumannii. Nature of the assay: Antibacterial activity against Acinetobacter baumannii resistant to (ERY) erythromycin;.
A further assay deals with Salmonella sp. Nature of the assay: Antibacterial activity against Salmonella species. resistant to (AMP) ampicillin; (ERY) erythromycin.
The mark [10] stands for this setting: Escherichia coli, read-out: MIC.

Converted amounts (≈) assume the structure as drawn.

In general, MIC refers to the least concentration at which growth counts as inhibited. For the compound `CC(C)C[C@H](N)C(=O)N(C)[C@@H](C)[C@H](NC(=O)[C@H](Cc1ccccc1)NC(=O)N[C@@H](Cc1c[nH]c2ccccc12)C(=O)O)C(=O)NC[C@H]1C[C@@H](O)[C@H](n2ccc(=O)[nH]c2=O)O1`, the MIC in assay [1] amounted to 30 µg/mL (≈ 36.1 µM); in assay [2], 10 µg/mL (≈ 12 µM); in [3], 30 µg/mL (≈ 36.1 µM); in assay [4] it was 30 µg/mL (≈ 36.1 µM).
`C[C@H](N)C(=O)N(C)[C@@H](C)[C@H](NC(=O)[C@H](Cc1ccccc1)NC(=O)N[C@@H](Cc1ccc2ccccc2c1)C(=O)O)C(=O)NC[C@H]1C[C@@H](O)[C@H](n2ccc(=O)[nH]c2=O)O1`: the MIC came out at 30 µg/mL (≈ 37.5 µM) in [1], 10 µg/mL (≈ 12.5 µM) in assay [2], 30 µg/mL (≈ 37.5 µM) in assay [3] and 30 µg/mL (≈ 37.5 µM) in assay [4].
Consider `CSCC[C@H](NC(=O)N[C@@H](Cc1ccc(O)cc1)C(=O)O)C(=O)N[C@H](C(=O)NC[C@H]1C[C@@H](O)[C@H](n2ccc(=O)[nH]c2=O)O1)[C@H](C)N(C)C(=O)[C@H](C)N`, for which the MIC in [1], in assay [2], in [3] and in [4] was over 30 µg/mL each time.
As to `C[C@H](N)C(=O)N(C)[C@@H](C)[C@H](NC(=O)[C@H](Cc1ccc(F)cc1)NC(=O)N[C@@H](Cc1c[nH]c2ccccc12)C(=O)O)C(=O)NC[C@H]1C[C@@H](O)[C@H](n2ccc(=O)[nH]c2=O)O1`, the MIC in assay [1] was found to be 4 µg/mL (≈ 4.95 µM); in assay [2], 8 µg/mL (≈ 9.9 µM); in assay [3], 8 µg/mL (≈ 9.9 µM); in [4], 8 µg/mL (≈ 9.9 µM).
Consider `C[C@H](N)C(=O)N(C)[C@@H](C)[C@H](NC(=O)[C@H](Cc1ccccc1)NC(=O)N[C@@H](Cc1c[nH]c2ccccc12)C(=O)O)C(=O)NC[C@H]1CC(O)[C@H](n2ccc(=O)[nH]c2=O)O1` (some centres undefined), for which the MIC amounted to 4 µg/mL (≈ 5.06 µM) in assay [1], 8 µg/mL (≈ 10.1 µM) in assay [2], 8 µg/mL (≈ 10.1 µM) in assay [3] and 8 µg/mL (≈ 10.1 µM) in [4].
Take `CC(C)C[C@H](NC(=O)N[C@@H](Cc1c[nH]c2ccccc12)C(=O)O)C(=O)N[C@H](C(=O)NC[C@H]1C[C@@H](O)[C@H](n2ccc(=O)[nH]c2=O)O1)[C@H](C)N(C)C(=O)CN`: the MIC in [1], in [2], in [3] and in [4] was over 30 µg/mL in each case.
On to `C[C@@H]([C@H](NC(=O)[C@H](Cc1ccccc1)NC(=O)N[C@@H](Cc1c[nH]c2ccccc12)C(=O)O)C(=O)NC[C@H]1C[C@@H](O)[C@H](n2ccc(=O)[nH]c2=O)O1)N(C)C(=O)CN`, for which the MIC against Pasteurella multocida came out at 64 µg/mL (≈ 82.5 µM); in the assay with Escherichia coli [5] (setting [10]) it was 256 µg/mL (≈ 330 µM); against Pseudomonas aeruginosa it was 8 µg/mL (≈ 10.3 µM).
With `C[C@H](N)C(=O)N(C)[C@@H](C)[C@H](NC(=O)[C@H](Cc1ccc(F)cc1)NC(=O)N[C@@H](Cc1ccc(O)cc1)C(=O)O)C(=O)NC[C@H]1C[C@@H](O)[C@H](n2ccc(=O)[nH]c2=O)O1`, the MIC against Pasteurella multocida is 512 µg/mL (≈ 652 µM); in the assay with Escherichia coli [6], 8 µg/mL (≈ 10.2 µM); against Citrobacter koseri, 16 µg/mL (≈ 20.4 µM); in the assay on Citrobacter freundii it was 1 µg/mL (≈ 1.27 µM); in [1] it was 8 µg/mL (≈ 10.2 µM); in the assay with Klebsiella pneumoniae [7], at least 64 µg/mL. In addition, the MIC in the assay with Klebsiella pneumoniae [8] stood at 32 µg/mL (≈ 40.8 µM); in the assay on Escherichia coli [5] it was 4 µg/mL (≈ 5.1 µM); with Escherichia coli [5] (setting [10]), 4 µg/mL (≈ 5.1 µM); in assay [2] it was 10 µg/mL (≈ 12.7 µM); against Escherichia coli [9] it was 8 µg/mL (≈ 10.2 µM); in assay [3] it was 8 µg/mL (≈ 10.2 µM). Also, the MIC against Enterobacter cloacae was at least 64 µg/mL; in [4], 10 µg/mL (≈ 12.7 µM); against Acinetobacter baumannii, at least 64 µg/mL; in the assay on Pseudomonas aeruginosa, 64 µg/mL (≈ 81.5 µM); against Salmonella sp., 8 µg/mL (≈ 10.2 µM).
Turning to `C[C@H](N)C(=O)N(C)[C@@H](C)[C@H](NC(=O)[C@H](Cc1ccc(-c2ccccc2)cc1)NC(=O)N[C@@H](Cc1c[nH]c2ccccc12)C(=O)O)C(=O)NC[C@H]1C[C@@H](O)[C@H](n2ccc(=O)[nH]c2=O)O1`, the MIC in [1] is 4 µg/mL (≈ 4.62 µM); in assay [2], 10 µg/mL (≈ 11.5 µM); in [3], 4 µg/mL (≈ 4.62 µM); in [4], 8 µg/mL (≈ 9.24 µM).
As to `C[C@H](N)C(=O)N(C)[C@@H](C)[C@H](NC(=O)[C@H](Cc1ccc(C(F)(F)F)cc1)NC(=O)N[C@@H](Cc1c[nH]c2ccccc12)C(=O)O)C(=O)NC[C@H]1C[C@@H](O)[C@H](n2ccc(=O)[nH]c2=O)O1`, the MIC in [1] was 4 µg/mL (≈ 4.66 µM); in assay [2], 8 µg/mL (≈ 9.33 µM); in [3], 4 µg/mL (≈ 4.66 µM); in assay [4], 8 µg/mL (≈ 9.33 µM).
As for `C[C@H](NC(=O)N[C@@H](Cc1c[nH]c2ccccc12)C(=O)O)C(=O)N[C@H](C(=O)NC[C@H]1C[C@@H](O)[C@H](n2ccc(=O)[nH]c2=O)O1)[C@H](C)N(C)C(=O)[C@@H](N)Cc1ccc(O)cc1` [PACIDAMYCIN], the MIC was 128 µg/mL (≈ 159 µM) in the assay with Pasteurella multocida; over 30 µg/mL in [1]; 256 µg/mL (≈ 318 µM) in the assay with Escherichia coli [5] (setting [10]); over 30 µg/mL in assay [2]; over 30 µg/mL in assay [3]; over 30 µg/mL in assay [4]. In the assay with Pseudomonas aeruginosa, this compound came in with an MIC of 16 µg/mL (≈ 19.9 µM).
